Measured values reported in PubChem BioAssay (NCI).
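The compound was tested at five concentrations on cells cultured in 96-well plates, with a 48-hour exposure period. Here, GI50 denotes the concentration required for 50% inhibition of growth. TGI denotes the concentration required for complete inhibition of growth.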

Assays:
Assay in all cases: inhibition of tumour cell growth, NCI panel, 48 h
NCI-H460 lung = tested on: NCI-H460 lung
SK-MEL-2 melanoma = tested on: SK-MEL-2 melanoma
NCI/ADR-RES ovarian = tested on: NCI/ADR-RES ovarian
HCT-15 colon = tested on: HCT-15 colon
HCC-2998 colon = tested on: HCC-2998 colon
TK-10 renal = tested on: TK-10 renal
HCT-116 colon = tested on: HCT-116 colon
LOX IMVI melanoma = tested on: LOX IMVI melanoma
CAKI-1 renal = tested on: CAKI-1 renal
SR leukemia = tested on: SR leukemia

Compound	GI50 (NCI-H460 lung)	TGI (NCI-H460 lung)	GI50 (SK-MEL-2 melanoma)	TGI (SK-MEL-2 melanoma)	GI50 (NCI/ADR-RES ovarian)	TGI (NCI/ADR-RES ovarian)	GI50 (HCT-15 colon)	TGI (HCT-15 colon)	GI50 (HCC-2998 colon)	TGI (HCC-2998 colon)	GI50 (TK-10 renal)	TGI (TK-10 renal)	GI50 (HCT-116 colon)	TGI (HCT-116 colon)	GI50 (LOX IMVI melanoma)	TGI (LOX IMVI melanoma)	TGI (CAKI-1 renal)	GI50 (CAKI-1 renal)	GI50 (SR leukemia)	TGI (SR leukemia)
Cc1ccc(-c2csc(/N=C3\C(=O)Nc4ccccc43)n2)cc1	1.76 µM	3.74 µM	1.63 µM	3.69 µM	20.7 µM	> 100 µM	2.37 µM	10.4 µM	1.6 µM	3.21 µM	2.52 µM	5.15 µM	1.35 µM	2.79 µM	1.28 µM	2.8 µM				
Cc1ccc(NC(=O)C2C(=O)N(c3ccc(C)cc3)C(=O)/C2=N\NC(N)=S)cc1 (centres undefined)		> 100 µM		> 100 µM				> 100 µM		> 100 µM		> 100 µM		> 100 µM		> 100 µM	> 100 µM			
CC(=O)[O][Ga]([Cl])[O]C(C)=O	> 100 µM	> 100 µM	> 100 µM	> 100 µM							> 100 µM	> 100 µM	> 100 µM	> 100 µM	> 100 µM	> 100 µM	> 100 µM	> 100 µM	> 100 µM	> 100 µM
Cc1[nH]c2ccccc2c1C(=O)CC1(O)C(=O)Nc2ccccc21 (centres undefined)		> 100 µM		> 100 µM				> 100 µM		> 100 µM		> 100 µM		> 100 µM		> 100 µM	> 100 µM			> 100 µM
Fc1ccc2[nH]cc(-c3nonc3-c3c[nH]c4ccc(Br)cc34)c2c1	2.07 µM	4.88 µM	2.23 µM	5.13 µM	2.87 µM	10.1 µM	1.64 µM	3.29 µM	1.89 µM	3.83 µM	3.04 µM	6.63 µM	1.84 µM	4.23 µM			13.8 µM	2.89 µM		
Cc1ccc(S(=O)(=O)NC(=O)C2C(=O)CC3(CCCCC3)CC2=O)cc1		74.9 µM				37.9 µM		62.4 µM				62.1 µM		74.4 µM		> 100 µM	65.9 µM			
O=C(O)CCCCCCC[C@H]1S[C@H]1CCCCCCO				> 100 µM				> 100 µM		> 100 µM		> 100 µM		> 100 µM			> 100 µM			> 100 µM
CC(=O)[CH-]C(C)=O.CC(=O)[CH-]C(C)=O.[CH2-]CCC.[CH2-]CCC.[Sn+4]	1.39 µM	2.9 µM	0.309 µM	1.22 µM			0.68 µM	1.99 µM			0.423 µM	1.36 µM	0.65 µM	1.96 µM	0.174 µM	0.464 µM	0.874 µM	0.151 µM	0.382 µM	> 100 µM
[Cl-].[O-]/N=C(\c1ccccc1)c1ccccn1.[O-]/N=C(\c1ccccc1)c1ccccn1.[O-]/N=C(\c1ccccc1)c1ccccn1.[Sm+3]	27.3 µM	> 100 µM	22 µM	52.8 µM			32.4 µM	> 100 µM	25.7 µM	> 100 µM	24.5 µM	> 100 µM	41.2 µM	> 100 µM	22.4 µM	53.3 µM	89.5 µM	27.1 µM		
COc1ccc2c(CN3CCCCC3CO)cc3cc(OC)c(OC)cc3c2c1 (centres undefined)				17.8 µM				20.8 µM		21 µM		27.5 µM		13.7 µM		13.7 µM				22.2 µM
CCCCCC(=O)C(C)C1=Nc2nnc(CCCCCCCc3nnc4n3C(=O)C(C(C)C(=O)CCCCC)=N4)n2C1=O (centres undefined)		> 100 µM						> 100 µM		> 100 µM		> 100 µM		> 100 µM		> 100 µM	> 100 µM			> 100 µM
Nc1ccccc1C(=O)CC1OC(=O)c2ccccc21 (centres undefined)		> 100 µM		88 µM		> 100 µM		> 100 µM				> 100 µM		> 100 µM		> 100 µM				> 100 µM
CC(C)=CC(=O)C/C(=N\NC(N)=S)C(=O)Nc1ccc(Cl)cc1		> 100 µM		> 100 µM				> 100 µM		> 100 µM		> 100 µM		> 100 µM		> 100 µM	> 100 µM			
Cc1sc2nc(-c3ccncc3)c(/C=N/N=C(N)N)n2c1C	27.3 µM	> 100 µM			> 100 µM	> 100 µM	> 100 µM	> 100 µM			> 100 µM	> 100 µM	27.7 µM	81.8 µM	28.2 µM	78 µM	> 100 µM	40.8 µM		
Cc1nc(Nc2ccc(Cl)cc2)sc1C(=O)NNc1ccc([N+](=O)[O-])cc1[N+](=O)[O-]		34.7 µM		32.7 µM						30 µM		37.2 µM		26.7 µM		35.7 µM	44.1 µM			
CCOc1ccc2nc(SCc3nc4n(n3)S(=O)(=O)c3ccccc3N4C)sc2c1	> 100 µM	> 100 µM	> 100 µM	> 100 µM	> 100 µM	> 100 µM	> 100 µM	> 100 µM					55.8 µM	> 100 µM	> 100 µM	> 100 µM	> 100 µM	> 100 µM	51.5 µM	> 100 µM
COc1cc(OC)cc(N(CCNC(C)C)c2ccc3ncc(-c4cnn(C)c4)nc3c2)c1	5.25 µM	18.1 µM	7.31 µM	25 µM	5.8 µM	22 µM	3.34 µM	13.5 µM	11.2 µM	24.9 µM	2.81 µM	12.1 µM	4.55 µM	17 µM	2.71 µM	11.8 µM	13.3 µM	2.8 µM		
c1cc(N(CCn2cccn2)CCn2cccn2)cc(N(CCn2cccn2)CCn2cccn2)c1		> 100 µM		> 100 µM				> 100 µM		> 100 µM		> 100 µM		> 100 µM		> 100 µM	> 100 µM			> 100 µM
